Reference: BigSolDB 2.1

O=c1cc(-c2ccccc2)c2cc(O)c(O)cc2o1
solubility (mole fraction)
Settings	in acetone	in chloroform	in ethyl acetate	in methanol	in n-hexane	in water
283.2 K	0.0022	3.75e-08	0.000553	0.000986	2.04e-08	7.94e-08
288.2 K	0.00228	4.16e-08	0.000572	0.00102	4.3e-08	1.39e-07
293.2 K	0.00237	5.93e-08	0.000616	0.0011	5.6e-08	1.92e-07
299.2 K	0.00246	7.09e-08	0.000928	0.00129	7.86e-08	2.39e-07
303.2 K	0.00266	1.04e-07	0.00101	0.00147	8.43e-08	2.51e-07
308.2 K	0.00299	1.71e-07	0.00139	0.00179	1.35e-07	3.57e-07

COc1cc2oc(=O)cc(-c3ccccc3)c2cc1O
solubility (mole fraction)
Settings	in acetone	in chloroform	in ethyl acetate	in methanol	in n-hexane	in water
283.2 K	0.00229	0.00313	0.0014	0.000504	3.88e-06	1.03e-07
288.2 K	0.00237	0.00361	0.00153	0.000516	4.03e-06	1.11e-07
293.2 K	0.00256	0.00374	0.00165	0.000542	4.09e-06	1.12e-07
299.2 K	0.0027	0.00414	0.00193	0.000646	4.48e-06	1.12e-07
303.2 K	0.00326	0.00457	0.00204	0.000722	4.76e-06	1.44e-07
308.2 K	0.0037	0.0059	0.00223	0.000835	5.36e-06	1.64e-07
